Test results as given in patent US8518957B2, “Methanocarba adenosine derivatives, pharmaceutical compositions, and method of reducing intraocular pressure” (The United States of America, as represented by the …, priority 2009, dated 2013).
Where two headings read alike, the source gives them in different places.

Columns and labels:
[1] = target: T1, human A3AR (Homo sapiens, UniProt P0DMS8); assay: Radioligand binding at human A3 AR ([125I]I-AB-MECA, membranes of CHO cells)
T1 construct: expressed in transfected cells
T1 sequence (P0DMS8 1-318): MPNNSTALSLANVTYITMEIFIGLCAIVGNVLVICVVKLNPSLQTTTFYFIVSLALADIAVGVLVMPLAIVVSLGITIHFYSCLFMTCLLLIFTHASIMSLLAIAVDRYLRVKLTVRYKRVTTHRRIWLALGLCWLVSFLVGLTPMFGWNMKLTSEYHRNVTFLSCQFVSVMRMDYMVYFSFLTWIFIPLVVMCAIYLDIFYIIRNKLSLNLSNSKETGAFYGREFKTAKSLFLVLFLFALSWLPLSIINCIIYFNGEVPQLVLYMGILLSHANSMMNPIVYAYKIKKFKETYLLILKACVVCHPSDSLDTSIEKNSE
Experimental: Test compounds were prepared as 5 mM stock solutions in DMSO and stored frozen at −20° C.
(§1) CHO cells stably expressing the recombinant hA1 and hA3Rs, and HEK-293 cells stably expressing the hA2AAR were cultured in Dulbecco's modified Eagle medium (DMEM) and F12 (1:1) supplemented with 10% fetal bovine serum, 100 units/mL penicillin, 100 μg/mL streptomycin, and […] glutamine. In addition, 800 μg/mL geneticin was added to the A2A media, while 500 μg/mL hygromycin was added to the A1 and A3 media. After harvesting, cells were homogenized and suspended in PBS. Cells were then centrifuged at 240 g for 5 min, and the pellet was resuspended in 50 mM Tris-HCl buffer (pH 7.5) containing 10 mM MgCl2. The suspension was homogenized and was then ultra-centrifuged at 14,330 g for 30 min at 4° C. The resultant pellets were resuspended in Tris buffer, incubated with adenosine deaminase (3 units/mL) for 30 min at 37° C. The suspension was homogenized with an electric homogenizer for 10 sec, pipetted into 1 mL vials and then stored at −80° C. until the binding experiments were conducted. The protein concentration was measured using the BCA Protein Assay Kit from Pierce Biotechnology, Inc. (Rockford, Ill.).
Into each tube in the binding assay was added 50 μL of increasing concentrations of the test ligand in Tris-HCl buffer (50 mM, pH 7.5) containing 10 mM MgCl2, 50 μl, of the appropriate agonist radioligand, and finally 100 μL of membrane suspension. […] For the A2AAR (20 μg/tube) the radioligand used was [^3H]37 (10 nM). […] Nonspecific binding was determined using a final concentration of 10 μM unlabeled 36 diluted with the buffer. The mixtures were incubated at 25° C. for 60 min in a shaking water bath. Binding reactions were terminated by filtration through Brandel GF/B filters under a reduced pressure using a M-24 cell harvester (Brandel, Gaithersburg, Md.). Filters were washed three times with 3 mL of 50 mM ice-cold Tris-HCl buffer (pH 7.5). […] Filters for A3AR binding were counted using a Packard Cobra II γ-counter. The Ki values were determined using GraphPad Prism for all assays.
Test compounds were prepared as 5-mM stock solutions in DMSO and stored frozen at −20° C.
(§2) Chinese hamster ovary (CHO) cells were generated by stably expressing the recombinant hA1 and hA3 and human embryonic kidney (HEK) 293 cells stably expressing the hA2AAR in DMEM and F12 (1:1) supplemented with 10% fetal bovine serum, 100 units/mL penicillin, 100 μg/mL streptomycin, and 2 μmol/mL glutamine. 800 μg/mL Geneticin were added to the A2A media and 500 μg/mL hygromycin to the A1 and A3 media. After harvesting the cells, they were homogenized with an electric homogenizer for 10 sec, pipetted them into 1-mL vials, and then stored them at −80° C. until the binding experiments were conducted. The protein concentration was measured with a BCA Protein Assay Kit from Pierce Biotechnology (Rockford, Ill.).
Each tube in the binding assay contained 50 μL of increasing concentrations of the test ligand in Tris-HCl buffer (50 mM, pH 7.5) containing 10 mM MgCl2, 50 μL of the appropriate agonist radioligand, and 100 μL membrane suspension, added sequentially. […] For the A2AAR (20 μg/tube), the radioligand [^3H]CGS21680 was used (−10 nM). […] The mixtures were incubated at 25° C. for 60 min in a shaking water bath. The binding reactions were terminated by filtration through Brandel GF/B filters under a reduced pressure with a M-24 cell harvester (Brandel, Gaithersburg, Md.). Filters were washed three times with 3 mL 50-mM ice-cold Tris-HCl buffer (pH 7.5). […] The filters were counted for A3AR binding with a Packard Cobra II γ-counter (PerkinElmer). The Ki values were determined with GraphPad Prism for all assays.

[2] = target: T2, hA2AAR (Homo sapiens, UniProt P29274); assay: Radioligand binding at human A2A AR ([3H]CGS21680, membranes of HEK-293 cells); settings: for Ki: Example 7, agonist radioligand [3H]46, HEK293, read-out: AR Affinity Ki, nM, A2A
T2 construct: expressed in transfected cells
T2 sequence (P29274 whole entry): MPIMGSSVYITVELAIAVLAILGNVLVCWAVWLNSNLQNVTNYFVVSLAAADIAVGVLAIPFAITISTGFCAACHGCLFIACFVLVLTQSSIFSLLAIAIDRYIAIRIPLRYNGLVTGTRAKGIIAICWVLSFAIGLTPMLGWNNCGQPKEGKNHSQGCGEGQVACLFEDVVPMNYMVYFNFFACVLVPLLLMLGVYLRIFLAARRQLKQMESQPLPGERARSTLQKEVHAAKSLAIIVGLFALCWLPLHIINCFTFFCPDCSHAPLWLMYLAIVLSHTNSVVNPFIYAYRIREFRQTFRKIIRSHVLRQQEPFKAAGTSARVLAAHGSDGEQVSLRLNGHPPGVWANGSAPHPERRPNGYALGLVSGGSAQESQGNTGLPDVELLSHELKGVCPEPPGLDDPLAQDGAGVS
Experimental: (§3) [^3H](2-[p-(2-Carboxyethyl)phenyl-ethylamino]-5′-N-ethylcarboxamido-adenosine) (37, [^3H]CGS21680, 40.5 Ci/mmol) and [^125I]N^6-(4-amino-3-iodobenzyl)adenosine-5′-N-methyluronamide (38, [^125I]I-AB-MECA, 2200 Ci/mmol) were purchased from Perkin-Elmer Life and Analytical Science (Boston, Mass.). Test compounds were prepared as 5 mM stock solutions in DMSO and stored frozen at −20° C.
as §1
(§4) Into each tube in the binding assay was added 50 μL of increasing concentrations of the test ligand in Tris-HCl buffer (50 mM, pH 7.5) containing 10 mM MgCl2, 50 μl, of the appropriate agonist radioligand, and finally 100 μL of membrane suspension. For the A1AR (22 μg of protein/tube) the radioligand used was [^3H]36 (final concentration of 3.5 nM). For the A2AAR (20 μg/tube) the radioligand used was [^3H]37 (10 nM). For the A3AR (21 μg/tube) the radioligand used was [^125I]38 (0.34 nM). Nonspecific binding was determined using a final concentration of 10 μM unlabeled 36 diluted with the buffer. The mixtures were incubated at 25° C. for 60 min in a shaking water bath. Binding reactions were terminated by filtration through Brandel GF/B filters under a reduced pressure using a M-24 cell harvester (Brandel, Gaithersburg, Md.). Filters were washed three times with 3 mL of 50 mM ice-cold Tris-HCl buffer (pH 7.5). Filters for A1 and A2AAR binding were placed in scintillation vials containing 5 mL of Hydrofluor scintillation buffer and counted using a Perkin Elmer Liquid Scintillation Analyzer (Tri-Carb 2810TR). Filters for A3AR binding were counted using a Packard Cobra II γ-counter. The Ki values were determined using GraphPad Prism for all assays.
(§5) [^3H](2-[p-(2-carboxyethyl)phenyl-ethylamino]-5′-N-ethylcarboxamido-adenosine) ([^3H]CGS21680, 40.5 Ci/mmol) and [^125I]N^6-(4-amino-3-iodobenzyl)adenosine-5′-N-methyluronamide ([^125I]I-AB-MECA, 2200 Ci/mmol) were purchased from PerkinElmer. Test compounds were prepared as 5-mM stock solutions in DMSO and stored frozen at −20° C.
as §2, with “Ill.). […]” for “Ill.).”

[3] = target: T3, human A1 AR (Homo sapiens, UniProt P30542); assay: Radioligand binding at human A1 AR ([3H]NECA, membranes of CHO cells); settings: for Ki: Example 7, agonist radioligand [3H]45, read-out: AR Affinity Ki, nM, A1
T3 construct: expressed in transfected cells
T3 sequence (P30542 1-326): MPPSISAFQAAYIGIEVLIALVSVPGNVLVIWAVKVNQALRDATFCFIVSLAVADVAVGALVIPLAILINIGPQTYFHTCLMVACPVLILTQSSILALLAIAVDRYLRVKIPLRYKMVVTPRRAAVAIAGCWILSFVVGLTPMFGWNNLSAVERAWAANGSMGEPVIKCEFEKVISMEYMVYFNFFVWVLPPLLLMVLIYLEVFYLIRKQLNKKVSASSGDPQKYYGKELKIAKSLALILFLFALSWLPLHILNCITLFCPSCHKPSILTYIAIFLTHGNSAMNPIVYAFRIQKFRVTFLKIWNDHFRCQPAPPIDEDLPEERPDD
Experimental: as §3, §1, §4, §5
as §2, with “Ill.). […]” for “Ill.).”

[4] = Example 7, agonist radioligand [125I]47, read-out: AR Affinity Ki, nM, A3

Row | Structure (SMILES) | Ki [2] | Ki [3] | Ki [1, 4] | further results
1 | CNC(=O)[C@@]12C[C@@H]1[C@@H](n1cnc3c(NCc4cccc(Cl)c4)nc(C#CCCCc4cn(-c5ccc(F)c([N+](=O)[O-])c5)nn4)nc31)[C@H](O)[C@@H]2O [Compound 10, (1S,2R,3S,4R,5S)-4′-(6-(3-Chlorobenzylamino)-2-(6-(1-(4-fluoro-3-nitrophenyl)-1H-1,2,3-triazol-4-yl)pent-1-ynyl)-9H-purin-9-yl)-2′,3′-dihydroxybicyclo[3.1.0]hexane-1′-carboxylic acid N-methylamide] |  |  |  | Ki ([1]; [125I]38, CHO cells, read-out: Affinity (Ki, nM), A3): 26 ± 8.2 nM; % inhibition, A2A ([2]; inhibition of radioligand binding at 10 μM, [3H]37, HEK293 cells): (39 ± 4%); % inhibition, A1 ([3]; inhibition of radioligand binding at 10 μM, [3H]36, CHO cells): (10 ± 3%)
2 | CNC(=O)[C@@]12C[C@@H]1[C@@H](n1cnc3c(NCc4cccc(I)c4)nc(Cl)nc31)[C@H](O)[C@@H]2O [Compound 127, reference compound] | 784 ± 97 nM | 136 ± 22 nM |  | 
3 | CNC(=O)[C@@]12C[C@@H]1[C@@H](n1cnc3c(NCc4cccc(C#CCCCc5cn(-c6ccc(F)c([N+](=O)[O-])c6)nn5)c4)nc(Cl)nc31)[C@H](O)[C@@H]2O [Compound 203, (1S,2R,3S,4R,5S)-4-(2-Chloro-6-(3-(5-(1-(4-fluoro-3-nitrophenyl)-1H-1,2,3-triazol-4-yl)pent-1-ynyl)benzylamino)-9H-purin-9-yl)-2,3-dihydroxybicyclo[3.1.0]hexane-1-carboxylic acid-N-methylamide] | 1960 ± 50 nM | 37.4 ± 12 nM | 3.2 ± 1.1 nM | 
4 | CNC(=O)[C@@]12C[C@@H]1[C@@H](n1cnc3c(NCc4cccc(C#CCCCc5cn(-c6ccc(F)c(N)c6)nn5)c4)nc(Cl)nc31)[C@H](O)[C@@H]2O [Compound 207, (1S,2R,3S,4R,5S)-4-(2-Chloro-6-(3-(5-(1-(4-fluoro-3-amino-phenyl)-1H-1,2,3-triazol-4-yl)pent-1-ynyl)benzylamino)-9H-purin-9-yl)-2,3-dihydroxybicyclo[3.1.0]hexane-1-carboxylic acid-N-methylamide] |  |  | 14.3 ± 2.3 nM | 
5 | CNC(=O)[C@@]12C[C@@H]1[C@@H](n1cnc3c(NCc4cccc(C#CCCCCCc5cn(-c6ccc(F)c(N)c6)nn5)c4)nc(Cl)nc31)[C@H](O)[C@@H]2O [Compound 208, (1S,2R,3S,4R,5S)-4-(2-Chloro-6-(3-(7-(1-(4-fluoro-3-amino-phenyl)-1H-1,2,3-triazol-4-yl)hept-1-ynyl)benzylamino)-9H-purin-9-yl)-2,3-dihydroxybicyclo[3.1.0]hexane-1-carboxylic acid-N-methylamide] |  |  | 47.6 ± 11.3 nM | 
6 | C#CCNc1nc(Cl)nc2c1ncn2[C@H]1[C@H](O)[C@H](O)[C@]2(C(=O)NC)C[C@H]12 [Compound 218, (1S,2R,3S,4R,5S)-4-(2-Chloro-6-(prop-2-ynylamino)-9H-purin-9-yl)-2,3-dihydroxy-N-methylbicyclo[3.1.0]hexane-1-carboxamide] |  |  | 1.9 nM | 

Second part, led by results:

Row | Ki [2] | Ki [3] | Ki [1, 4] | Structure (SMILES) | further results
7 | 4950 ± 960 nM | 104 ± 24 nM | 8.1 ± 3.1 nM | C#CCCCC#Cc1cccc(CNc2nc(Cl)nc3c2ncn3[C@H]2[C@H](O)[C@H](O)[C@]3(C(=O)NC)C[C@H]23)c1 [Compound 200, (1S,2R,3S,4R,5S)-4-[2-Chloro-6-{3-(1,6-heptadiynylbenzylamino)}-9H-purin—9-yl]-2,3-dihydroxybicyclo[3.1.0]hexane-1-carboxylic acid N-methylamide] | 
8 |  | 1490 ± 230 nM | 113 ± 24 nM | C#CCCCCC#Cc1cccc(CNc2nc(Cl)nc3c2ncn3[C@H]2[C@H](O)[C@H](O)[C@]3(C(=O)NC)C[C@H]23)c1 [Compound 201, (1S,2R,3S,4R,5S)-4-[2-Chloro-6-{3-(1,7-octadiynyl)benzylamino}-9H-purin-9-yl]-2,3-dihydroxybicyclo[3.1.0]hexane-1-carboxylic acid N-methylamide] | inhibition at 10 µM [2]: 19.7%
9 |  |  | 87.2 ± 49 nM | C#CCCCCCC#Cc1cccc(CNc2nc(Cl)nc3c2ncn3[C@H]2[C@H](O)[C@H](O)[C@]3(C(=O)NC)C[C@H]23)c1 [Compound 202, (1S,2R,3S,4R,5S)-4-[2-Chloro-6-{3-(1,8-nonadiynyl)}-9H-purin-9-yl]-2,3-dihydroxybicyclo[3.1.0]hexane-1-carboxylic acid N-methylamide] | inhibition at 10 µM [2]: 7%; inhibition at 10 µM [3]: 47.7%
